Laboratory results taken from patent US10005884B2, “Methods for purifying 2-aryl-3,3-bis(hydroxyaryl)phthalimidines” (SABIC GLOBAL TECHNOLOGIES B.V., priority 2014, dated 2018).

Assay: Solubility of PPPBP in methanol (amount of methanol required to bring PPPBP into solution)
Format: physicochemical
From the text: Studies were undertaken to determine the amount of methanol required to bring PPPBP into solution at room temperature and at elevated temperature.

- Volumes of methanol (at reflux temp): 17 volumes
- Volumes of methanol (at room temp): 20 volumes
Structure (SMILES): O=C1c2ccccc2C(c2ccc(O)cc2)(c2ccc(O)cc2)N1c1ccccc1 [Pure PPPBP, 2-phenyl-3,3-bis(4-hydroxyphenyl)phthalimidine]
